Test results as given in PMC12127091, “Targeting Cancer With Bifunctional Peptides: Mechanism of Cell Entry and Inciting Cell Death” (Cancer Science, 2025).
Where a SMILES comes first, the peptide text is derived from it. [ ]: non-standard residue; d: D form.

Assays:
SK‐BR‐3 = assay: Plasma membrane damage (LDH leakage, Annexin V binding); type: cell-based; conditions: SK‐BR‐3, 8 μM peptides, Figure 5a,b
Protocol: 7 × 10^3–10^4 cells were seeded in a 96‐well plate and left to recover overnight. The cells were treated with 8 μM of peptides and were harvested at two time points. The treated cells were harvested, and the supernatants were collected.
The cells were stained with FITC Annexin V and 7‐AAD (Biolegend) in Annexin V binding buffer (Becton, Dickinson and Company). The binding of Annexin V was checked using flow cytometry.
25 μL of the supernatant was used to check the presence of active lactate dehydrogenase using the CyQUANT LDH Cytotoxicity Assay Kit (Thermo Fisher Scientific) according to the manufacturer's instructions. The absorbance was measured at 490 and 680 nm.

[1] = system: Caki‐2, SK‐BR‐3, A‐704 and CCD18‐Co; assay: FITC‐peptide uptake by flow cytometry; type: cell-based; conditions: Caki‐2 and SK‐BR‐3, 5 μM FITC‐peptide, 1 h, Figure 2a
Protocol: 7 × 10^3–10^4 cells were seeded in a 96‐well plate. On the next day, the cells were incubated with 5 μM of FITC‐conjugated peptides. The cells were harvested at different time points and measured for their fluorescence intensity using BD FACSCanto II (Becton, Dickinson and Company, Franklin Lanes, NJ, USA). Dead cells were excluded by staining the cells with 7‐AAD dye (Biolegend, San Diego, CA, USA).

[2] = attributed to high polarity; cited from earlier work
Excerpt: (§1) Nonetheless, introducing this peptide to human sarcoma and melanoma cell lines at 1% of their inhibitory concentrations (IC50) was described to induce mitochondrial swelling p ...

human erythrocytes = conditions: cited from earlier work
Excerpt: as §1

| Structure (SMILES) | time after peptide addition at which major plasma membrane damage was detected (SK‐BR‐3) [h] | internalization (fluorescence intensity) of FITC‐peptides [1] | ability to cross the plasma membrane [2] | cytotoxicity towards human erythrocytes (human erythrocytes) |
| --- | --- | --- | --- | --- |
| CC(C)C[C@H](NC(=O)[C@H](Cc1c[nH]c2ccccc12)NC(=O)[C@@H]1CCCN1C(=O)[C@H](CO)NC(=O)[C@H](Cc1ccc(O)cc1)NC(=O)[C@@H](N)C(C)C)C(=O)N[C@H](C(=O)NCC(=O)NCC(=O)N[C@H](CCCCN)C(=O)N[C@H](CC(C)C)C(=O)N[C@H](C)C(=O)N[C@H](CCCCN)C(=O)N[C@H](CC(C)C)C(=O)N[C@H](C)C(=O)N[C@H](CCCCN)C(=O)N[C@H](CCCCN)C(=O)N[C@H](CC(C)C)C(=O)N[C@H](C)C(=O)N[C@H](CCCCN)C(=O)N[C@H](CC(C)C)C(=O)N[C@H](C)C(=O)N[C@H](CCCCN)C(=O)O)[C@@H](C)O [TP2‐D‐Tox] (H-VYSPWLTGG[dK][dL][dA][dK][dL][dA][dK][dK][dL][dA][dK][dL][dA][dK]-OH) | ≤ 3 | higher cell penetration | – | – |
| CC(C)C[C@H](N)C(=O)N[C@H](C(=O)N[C@H](C(=O)N[C@@H](CO)C(=O)N1CCC[C@H]1C(=O)N[C@@H](Cc1c[nH]c2ccccc12)C(=O)N[C@@H](Cc1ccc(O)cc1)C(=O)NCC(=O)NCC(=O)N[C@H](CCCCN)C(=O)N[C@H](CC(C)C)C(=O)N[C@H](C)C(=O)N[C@H](CCCCN)C(=O)N[C@H](CC(C)C)C(=O)N[C@H](C)C(=O)N[C@H](CCCCN)C(=O)N[C@H](CCCCN)C(=O)N[C@H](CC(C)C)C(=O)N[C@H](C)C(=O)N[C@H](CCCCN)C(=O)N[C@H](CC(C)C)C(=O)N[C@H](C)C(=O)N[C@H](CCCCN)C(=O)O)C(C)C)[C@@H](C)O [TP‐D‐Tox] (H-LTVSPWYGG[dK][dL][dA][dK][dL][dA][dK][dK][dL][dA][dK][dL][dA][dK]-OH) | ≤ 3 | – | – | – |
| CC(C)C[C@H](NC(=O)[C@H](CCCCN)NC(=O)[C@H](C)NC(=O)[C@H](CC(C)C)NC(=O)[C@H](CCCCN)NC(=O)[C@H](CCCCN)NC(=O)[C@H](C)NC(=O)[C@H](CC(C)C)NC(=O)[C@H](CCCCN)NC(=O)[C@H](C)NC(=O)[C@H](CC(C)C)NC(=O)[C@@H](N)CCCCN)C(=O)N[C@@H](C)C(=O)N[C@@H](CCCCN)C(=O)O [Tox] | – | – | hardly able to cross the plasma membrane | considerably lower cytotoxicity |
